These results are taken from patent publication US20150148311A1, “NON-SYSTEMIC TGR5 AGONISTS” (Ardelyx, Inc., priority 2011, published 2015).

Read-outs that look alike come from different tables or passages of the source.

Series [1] in a line: Compound plasma concentration, LC-MS/MS, 8 h post dose. The class given is in vivo. The settings on record: 30 mg/kg; for Number of Mice with Plasma Concentration < LLOQ: mice below LLOQ / mice in group; for concentration at 8 h: male, C57BL/6, mouse, mice, plasma, read-out: Mean Example Plasma Concentration. The protocol:
(§1) Eight hours later, each mouse was heavily anesthetized with isoflurane, the peritoneal cavity was opened and the gallbladder, with its entire contents, was carefully excised and weighed. Blood was collected from the left ventricle of the heart and processed to plasma in EDTA-coated tubes containing aprotinin and DPPIV inhibitor for measurement of total GLP-1 (K150FCC; Meso Scales Discovery, Gaithersburg Md.).
Plasma samples were treated with acetonitrile containing an internal standard, precipitated proteins removed by centrifugation. Supernatants were analyzed by LC-MS/MS and compound concentrations were determined by interpolated from a standard curve prepared in plasma.

Series [2] is described as follows: Compound concentration in gall bladder, LC-MS/MS, 8 h post dose. The series is classed as in vivo. The settings on record: 30 mg/kg; for Number of Mice with Gallbladder Concentration < LLOQ: mice below LLOQ / mice in group; for concentration at 8 h: male, C57BL/6, mouse, with contents, mice, gallbladder homogenate, read-out: Mean Example Gallbladder Concentration. The protocol:
as §1
Compound concentrations in the gall bladder were determined as follows: each mouse was heavily anesthetized with isoflurane, the peritoneal cavity was opened and the gallbladder, with its entire contents, was carefully excised. After harvest, gall bladders were homogenized in 100 μL water using a micro-homogenizer. Samples of homogenate were diluted 1:5 in water and precipitated with three volumes of neat acetonitrile. After centrifugation, supernatants were analyzed by LC-MS/MS. The level of test compound present in gall bladder samples was interpolated from a standard curve for each individual compound prepared in a matrix of gallbladder homogenate from vehicle treated animals.

The target of a further series is T1, human IBAT (Homo sapiens, UniProt Q12908).
T1 construct: expressed in transfected cells; host or cells: HEK293
T1 sequence (Q12908 1-348): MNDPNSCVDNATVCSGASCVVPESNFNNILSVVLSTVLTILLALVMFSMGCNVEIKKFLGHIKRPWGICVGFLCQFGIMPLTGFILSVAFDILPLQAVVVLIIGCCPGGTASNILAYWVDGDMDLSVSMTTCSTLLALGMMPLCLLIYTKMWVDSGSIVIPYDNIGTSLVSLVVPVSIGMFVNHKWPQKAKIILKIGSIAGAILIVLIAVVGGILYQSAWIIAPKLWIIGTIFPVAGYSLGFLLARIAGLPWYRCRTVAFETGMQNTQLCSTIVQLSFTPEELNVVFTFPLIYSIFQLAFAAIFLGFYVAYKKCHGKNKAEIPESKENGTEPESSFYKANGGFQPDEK
Put plainly: IBAT counter screen, [3H]taurocholic acid uptake in IBAT-transfected HEK293 cells. The series is classed as cell-based. The settings on record: read-out: pEC50 human IBAT (converted). How it is done:
Following a 40-min incubation, the solution was removed, and the cells were washed twice with uptake buffer. Cells were lysed by addition of 20 μL 0.1% Tween 80 followed by 100 μL scintillation fluid and counted using a TopCount (Perkin Elmer).
(The purpose of a counterscreen is to sort out artefacts and off-target activity.)

The next series has as its target T2, human TGR5 (Homo sapiens, UniProt Q8TDU6).
T2 construct: expressed in transfected cells
T2 sequence (Q8TDU6 1-330): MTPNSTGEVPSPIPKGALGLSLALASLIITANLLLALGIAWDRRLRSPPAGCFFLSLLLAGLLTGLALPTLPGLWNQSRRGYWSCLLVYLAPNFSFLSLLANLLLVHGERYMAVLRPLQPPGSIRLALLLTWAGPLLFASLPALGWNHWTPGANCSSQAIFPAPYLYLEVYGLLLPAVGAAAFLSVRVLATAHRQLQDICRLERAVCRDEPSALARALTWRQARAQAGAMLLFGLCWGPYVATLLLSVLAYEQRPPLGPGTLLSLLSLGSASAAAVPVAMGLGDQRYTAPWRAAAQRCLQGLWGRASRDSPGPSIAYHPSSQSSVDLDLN
Put plainly: Cell-based TGR5 assay, HEK293 cells stably expressing human TGR5, cAMP by HTRF. The settings on record: 0.05 nM to 10 μM. Put shortly:
(§2)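 cAMP HTRF read-out, converted to concentration via standard curve, after a 30 min, 37 °C compound exposure in HBSS with 10 mM HEPES pH 7.4 and 0.5 mM IBMX, compounds serially diluted 3-fold from 10 mM DMSO stock then 100-fold. Cells: stable human TGR5 HEK293, or NCI-H716 expressing TGR5 endogenously.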
In general terms: TR-FRET usually uses a lanthanide donor and a delayed reading to cut background.

In series [3] the target is T3, endogenously expressed TGR5 in NCI H716 (Homo sapiens, UniProt Q8TDU6).
T3 construct: human caecum carcinoma cell line NCI-H716 which endogenously expresses human TGR5; endogenous in cells; host or cells: NCI-H716
T3 sequence (Q8TDU6 1-330): T2 sequence (Q8TDU6 1-330)
Put plainly: Cell-based TGR5 assay, NCI-H716 cells endogenously expressing human TGR5, cAMP by HTRF. The settings on record: 30 min at 37 C, 22 nM to 50 μM, read-out: pEC50 endogenously expressed TGR5 in NCI H716 (converted). Put shortly:
as §2

[4] abbreviates: pEC50 Human TGR5, HEK293 cells stably expressing human TGR5, 30 min at 37 C.
[5] abbreviates: HEK293 cells stably expressing human TGR5, 30 min at 37 C, read-out: pEC50 Human TGR5 (converted).

Regarding `O=C(CCc1cc(Cl)c(CN2CSC[C@H]2C(=O)N2CCN(C3CC3)c3ccccc32)cc1Cl)NC[C@H](O)[C@@H](O)C(O)[C@H](O)CO` (stereo in doubt) [Example 97, 3-(2,5-dichloro-4-(((R)-4-(4-cyclopropyl-1,2,3,4-tetrahydroquinoxaline-1-carbonyl)thiazolidin-3-yl)methyl)phenyl)-N-((2S,3R,4R,5R)-2,3,4,5,6-pentahydroxyhexyl)propanamide], the “Number of Mice with Plasma Concentration < LLOQ” value in series [1] was 7/8. Besides, in series [2], the “Number of Mice with Gallbladder Concentration < LLOQ” value was 0/8 and the concentration at 8 h was 0.52 µM.

Take `O=C([C@@H]1C[C@@H](O)CN1Cc1cc(Cl)ccc1Cl)N1CCN(C2CC2)c2ccccc21` [Example 2, (4-cyclopropyl-3,4-dihydroquinoxalin-1(2H)-yl)((2S,4R)-1-(2,5-dichlorobenzyl)-4-hydroxypyrrolidin-2-yl)methanone]: the EC50 on human IBAT was > 25.1 µM.

In the case of `O=C([C@@H]1C[C@H](F)CN1Cc1cc(Cl)ccc1Cl)N1CCN(C2CC2)c2ccccc21` [Example 3, (4-cyclopropyl-3,4-dihydroquinoxalin-1(2H)-yl)((2S,4S)-1-(2,5-dichlorobenzyl)-4-fluoropyrrolidin-2-yl)methanone], on human IBAT, the EC50 is > 25.1 µM.

Turning to `CN(C[C@H](O)[C@@H](O)[C@@H](O)[C@H](O)CO)C(=O)CCc1cc(Cl)c(CN2CSC[C@H]2C(=O)N2CCN(C3CC3)c3ccccc32)cc1Cl` [Example 98, 3-(2,5-dichloro-4-(((R)-4-(4-cyclopropyl-1,2,3,4-tetrahydroquinoxaline-1-carbonyl)thiazolidin-3-yl)methyl)phenyl)-N-methyl-N-((2S,3R,4S,5R)-2,3,4,5,6-pentahydroxyhexyl)propanamide], the “Number of Mice with Plasma Concentration < LLOQ” value in series [1] is reported as 4/8. Also, in series [2], the “Number of Mice with Gallbladder Concentration < LLOQ” value is reported as 0/8.

As for `O=C(NCCCCc1cc(Cl)c(CN2CSC[C@H]2C(=O)N2CCN(C3CC3)c3ccccc32)cc1Cl)NC[C@@H](O)[C@H](O)[C@@H](O)[C@@H](O)CO` [Example 177, 1-(4-(2,5-dichloro-4-(((R)-4-(4-cyclopropyl-1,2,3,4-tetrahydroquinoxaline-1-carbonyl)thiazolidin-3-yl)methyl)phenyl)butyl)-3-((2R,3S,4S,5S)-2,3,4,5,6-pentahydroxyhexyl)urea], the concentration at 8 h in series [2] stood at 0.1 µM.

With `CN(C[C@@H](O)[C@H](O)[C@@H](O)[C@@H](O)CO)C(=O)NCCCCc1cc(Cl)c(CN2CSC[C@H]2C(=O)N2CCN(C3CC3)c3ccccc32)cc1Cl` [Example 208], in series [1], the “Number of Mice with Plasma Concentration < LLOQ” value was 7/7 and the concentration at 8 h is < 0.5 ng/mL. For the same compound, in series [2], the “Number of Mice with Gallbladder Concentration < LLOQ” value is 0/7.

Take `C[C@@H](NC(=O)[C@@H](C)NC(=O)[C@@H](C)NC(=O)CCCCc1cc(Cl)c(CN2CSC[C@H]2C(=O)N2CCN(C3CC3)c3ccccc32)cc1Cl)C(=O)O` [Example 227]: on human TGR5 (setting [4]), the EC50 is < 0.1 µM. Besides, in series [1], the “Number of Mice with Plasma Concentration < LLOQ” value is recorded as 7/8 and the concentration at 8 h amounted to 0.6 ng/mL. Moreover, in series [2], the “Number of Mice with Gallbladder Concentration < LLOQ” value is on record as 0/7 and the concentration at 8 h came out at 1.73 µM.

For the compound `CN(C[C@H](O)[C@@H](O)[C@H](O)[C@H](O)CO)C(=O)CCc1cc(Cl)c(CN2CSC[C@H]2C(=O)N2CCN(C3CC3)c3ccccc32)cc1Cl` [Example 237], the “Number of Mice with Plasma Concentration < LLOQ” value in series [1] is 7/8. In series [2], the “Number of Mice with Gallbladder Concentration < LLOQ” value is on record as 1/8.

`CN(C[C@H](O)[C@@H](O)[C@@H](O)[C@H](O)CO)C(=O)CCCCc1cc(Cl)c(CN2CSC[C@H]2C(=O)N2CCN(C3CC3)c3ccccc32)cc1Cl` [Example 239]: in series [1], the “Number of Mice with Plasma Concentration < LLOQ” value is on record as 6/8 and the concentration at 8 h is 2 ng/mL. Besides, in series [2], the “Number of Mice with Gallbladder Concentration < LLOQ” value is listed as 8/8 and the concentration at 8 h is < 0.003 µM.

Regarding `COc1ccc(COC2(C(=O)N3CCN(C4CC4)c4ccccc43)CC2)c(Cl)c1` [Example 246], the EC50 in series [3] is 1.26 to 50.1 µM; at human TGR5 (setting [5]), 0.126 to 1 µM.

`O=C(N1CCN(C2CC2)c2ccccc21)C1(OCc2c(Cl)cccc2Cl)CC1` [Example 247]: the EC50 (in series [3]; on human TGR5 (setting [5])) was 1.26 to 50.1 µM throughout.

Regarding `O=C(N1CCN(C2CC2)c2ccccc21)C1(OCc2cc(Cl)cc(OC(F)(F)F)c2)CC1` [Example 248], the EC50 (in series [3]; on human TGR5 (setting [5])) was 1.26 to 50.1 µM throughout.

Consider `Cc1ccc(Cl)c(COC2(C(=O)N3CCN(C4CC4)c4ccccc43)CC2)c1F` [Example 249], for which the EC50 (in series [3]; on human TGR5 (setting [5])) was 1.26 to 50.1 µM throughout.

As for `O=C(N1CCN(C2CC2)c2ccccc21)C1(NCc2cc(Cl)ccc2C(F)(F)F)CC1` [Example 254], the EC50 (in series [3]; at human TGR5 (setting [5])) was < 0.1 µM throughout.

As for `O=C(N1CCN(C2CC2)c2ccccc21)C1(NCc2cc(C(F)(F)F)ccc2Cl)CC1` [Example 255], the EC50 (in series [3]; at human TGR5 (setting [5])) was < 0.1 µM throughout.

For `COc1cc(Cl)c(CNC2(C(=O)N3CCN(C4CC4)c4ccccc43)CC2)cc1Cl` [Example 256], the EC50 (in series [3]; on human TGR5 (setting [5])) was 0.126 to 1 µM each time.

Consider `CN(C(=O)C1(OCc2cc(Cl)c(CCCCNC(=O)NC[C@H](O)[C@@H](O)[C@H](O)[C@H](O)CO)cc2Cl)CC1)c1ccccc1OC1CC1` [Example 257], for which the EC50 in series [3] was 0.126 to 1 µM; on human TGR5 (setting [5]), < 0.1 µM.

In the case of `O=C([C@@H]1SCCN1Cc1cc(Cl)ccc1C(F)(F)F)N1CCN(C2CC2)c2ccccc21` [Example 268], the EC50 in series [3] was 0.126 to 1 µM; on human TGR5 (setting [5]), < 0.1 µM.

As for `O=C(O)CN(CCCCCc1cc(Cl)c(CN2CSC[C@H]2C(=O)N2CCN(C3CC3)c3ccccc32)cc1Cl)CC(=O)O` [Example 276], the concentration at 8 h in series [1] was 7.6 ng/mL.

Compound `CN(C[C@H](O)[C@@H](O)[C@H](O)[C@H](O)CO)C(=O)CC[C@H](NC(=O)CCCCc1cc(Cl)c(CN2CSC[C@H]2C(=O)N2CCN(C3CC3)c3ccccc32)cc1Cl)C(=O)O` [Example 278] came in with an EC50 at human TGR5 (setting [4]) of 0.126 to 1 µM. Also, in series [1], the “Number of Mice with Plasma Concentration < LLOQ” value is given as 5/8 and the concentration at 8 h came to 2.3 ng/mL. Also, in series [2], the “Number of Mice with Gallbladder Concentration < LLOQ” value was 0/8 and the concentration at 8 h was found to be 3.1 µM.

Take `O=C(NCCCCCc1cc(Cl)c(CN2CSC[C@H]2C(=O)N2CCN(C3CC3)c3ccccc32)cc1Cl)N1CCN(CP(=O)(O)O)CC1` [Example 282]: at human TGR5 (setting [4]), the EC50 was < 0.1 µM. Besides, in series [1], the “Number of Mice with Plasma Concentration < LLOQ” value is 0/8 and the concentration at 8 h came out at 2.8 ng/mL. For the same compound, in series [2], the “Number of Mice with Gallbladder Concentration < LLOQ” value was 0/7 and the concentration at 8 h was found to be 0.08 µM.

In the case of `O=C(NCCCCCc1cc(Cl)c(CN2CSC[C@H]2C(=O)N2CCN(C3CC3)c3ccccc32)cc1Cl)NCP(=O)(O)O` [Example 283], the EC50 at human TGR5 (setting [4]) was 0.126 to 1 µM. For the same compound, in series [1], the “Number of Mice with Plasma Concentration < LLOQ” value is reported as 7/8 and the concentration at 8 h is 24.8 ng/mL. Moreover, in series [2], the “Number of Mice with Gallbladder Concentration < LLOQ” value is given as 0/8 and the concentration at 8 h came to 3.06 µM.

For `O=C(NC[C@H](O)[C@@H](O)[C@H](O)[C@H](O)CO)c1ccc(OCc2cc(Cl)c(CN3CSC[C@H]3C(=O)N3CCN(C4CC4)c4ccccc43)cc2Cl)nc1` [Example 285], in series [1], the “Number of Mice with Plasma Concentration < LLOQ” value is given as 2/8. Further, the “Number of Mice with Gallbladder Concentration < LLOQ” value in series [2] was 0/8.
